# Source: ChEMBL document CHEMBL5126540, “Resveratrol-based compounds and neurodegeneration: Recent insight in multitarget therapy” (Eur J Med Chem, 2022)
# What was measured:
# [1] = Antioxidant activity assessed as ABTS radical scavenging activity; assay type: functional
# [2] = time 30.0 min
# Acetylcholinesterase [3] = biological target: T1, Acetylcholinesterase (Homo sapiens, UniProt P22303); experiment: Binding affinity to AChE (unknown origin) assessed as inhibition constant
# Liver = experiment: tissue or blood; conditions: Canis lupus familiaris
# Description: Antioxidant activity assessed as Fe2+/ascorbate-induced MDA level in liver mitochondria (unknown origin) preincubated for 30 mins followed by addition of Fe2+/ascorbate measured after 30 mins
# [4] = Antioxidant activity assessed as trolox equivalent of ORAC radical scavenging activity by ORAC-FL assay; assay type: functional
# C2C12 = experiment: Cytotoxicity against mouse C2C12 cells incubated for 24 to 48 hrs by MTT assay; assay type: toxicity, cell-based; conditions: time 24-48 hrs
# Cholinesterase [5] = biological target: T2, Cholinesterase (Homo sapiens, UniProt P06276)
# Description: Inhibition of BChE (unknown origin) incubated for 30 mins by Ellman's method
# [6] = biological target: T3, Polyunsaturated fatty acid 5-lipoxygenase (Homo sapiens, UniProt P09917); experiment: Inhibition of human LOX-5 in presence of LOX substrate solution incubated for 10 mins by Varioskan-flash microplate spectrophotometer reader
# T3 sequence (P09917 whole entry): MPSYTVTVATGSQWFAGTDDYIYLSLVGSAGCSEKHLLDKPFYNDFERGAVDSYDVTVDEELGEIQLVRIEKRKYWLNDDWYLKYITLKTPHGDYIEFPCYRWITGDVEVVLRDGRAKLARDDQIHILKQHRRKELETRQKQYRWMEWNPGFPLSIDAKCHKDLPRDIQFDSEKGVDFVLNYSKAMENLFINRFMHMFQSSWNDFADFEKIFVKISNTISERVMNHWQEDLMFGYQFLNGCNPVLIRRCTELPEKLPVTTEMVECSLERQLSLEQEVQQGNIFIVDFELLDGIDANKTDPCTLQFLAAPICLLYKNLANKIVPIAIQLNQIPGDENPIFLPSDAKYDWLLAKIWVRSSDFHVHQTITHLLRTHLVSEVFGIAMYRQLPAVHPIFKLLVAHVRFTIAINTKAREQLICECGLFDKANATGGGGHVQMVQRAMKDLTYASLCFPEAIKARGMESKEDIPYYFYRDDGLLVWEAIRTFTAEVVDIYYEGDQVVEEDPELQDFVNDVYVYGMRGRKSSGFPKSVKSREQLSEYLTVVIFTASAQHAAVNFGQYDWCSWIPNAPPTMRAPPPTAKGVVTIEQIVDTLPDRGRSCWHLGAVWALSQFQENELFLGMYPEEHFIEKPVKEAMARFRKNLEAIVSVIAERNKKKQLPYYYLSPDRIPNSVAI
# Acetylcholinesterase [7] = biological target: T1, Acetylcholinesterase; experiment: Inhibition of AChE (unknown origin) incubated for 30 mins by Ellman's method
# Beta-secretase 1 = Beta-secretase 1 (Homo sapiens, UniProt P56817); experiment: Inhibition of human recombinant BACE-1 expressed in baculovirus using Rh-EVNLDAEFK-Quencher as substrate incubated for 60 mins by measuring increase in fluorescence intensity using fluorescence microplate reader
# [8] = Antioxidant activity assessed as DPPH radical scavenging activity measured after 45 mins by Varioskan-flash microplate spectrophotometer reader; assay type: functional
# [9] = biological target: T4, Amine oxidase [flavin-containing] B (Homo sapiens, UniProt P27338)
# T4 sequence (P27338 whole entry): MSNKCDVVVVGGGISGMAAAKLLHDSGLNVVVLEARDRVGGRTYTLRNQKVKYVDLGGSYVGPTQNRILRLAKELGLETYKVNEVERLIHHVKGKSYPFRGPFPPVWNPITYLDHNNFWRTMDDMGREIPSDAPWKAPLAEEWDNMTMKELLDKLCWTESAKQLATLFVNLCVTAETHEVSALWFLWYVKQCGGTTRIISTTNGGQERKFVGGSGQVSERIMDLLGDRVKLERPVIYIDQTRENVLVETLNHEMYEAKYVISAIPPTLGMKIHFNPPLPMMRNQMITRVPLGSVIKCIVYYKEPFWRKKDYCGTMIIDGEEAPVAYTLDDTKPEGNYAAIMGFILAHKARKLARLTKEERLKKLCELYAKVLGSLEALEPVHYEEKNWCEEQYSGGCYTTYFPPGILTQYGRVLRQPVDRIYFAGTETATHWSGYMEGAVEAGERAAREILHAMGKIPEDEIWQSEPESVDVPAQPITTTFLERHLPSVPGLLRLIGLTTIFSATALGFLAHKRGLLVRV
# Description: Inhibition of human recombinant MAO-B incubated for 30 mins by fluorescence based assay
# Carbonic anhydrase 2 = Carbonic anhydrase 2 (Homo sapiens, UniProt P00918)
# Description: Binding affinity to carbonic anhydrase 2 (unknown origin) assessed as inhibition constant
# Carbonic anhydrase 1 = Carbonic anhydrase 1 (Homo sapiens, UniProt P00915); experiment: Binding affinity to carbonic anhydrase 1 (unknown origin) assessed as inhibition constant
# Acetylcholinesterase [10] = biological target: T1, Acetylcholinesterase; experiment: Inhibition of AChE (unknown origin) using ATCI as substrate incubated for 30 mins by Ellman's method
# Cholinesterase [11] = biological target: T2, Cholinesterase; experiment: Inhibition of BChE (unknown origin) using BTCI as substrate incubated for 30 mins by Ellman's method
# [12] = biological target: T5, Amyloid-beta precursor protein (Homo sapiens, UniProt P05067); experiment: Inhibition of Amyloid beta (1 to 42) (unknown origin) self aggregation at 25 uM by ThT-based fluorescence assay relative to control
# [13] = Antioxidant activity assessed as DPPH radical scavenging activity measured after 15 mins; assay type: functional
# [14] = Antioxidant activity assessed as galvinoxyl radical scavenging activity measured after 20 mins; assay type: functional
# [15] = Antioxidant activity assessed as ABTS radical scavenging activity measured after 6 mins; assay type: functional
# [16] = Antioxidant activity assessed as DPPH radical scavenging activity measured after 20 mins; assay type: functional
# PC-12 = experiment: Neuroprotective activity against H2o2-induced rat PC-12 cells assessed as cell viability preincubated for 2 hrs followed by H2O2 treatment measured after 24 hrs by MTT assay; assay type: functional; conditions: time 26 hrs
# [17] = biological target: T4, Amine oxidase [flavin-containing] B; experiment: Inhibition of human recombinant MAO-B incubated for 15 mins by Amplex red MAO assay
# [18] = biological target: T5, Amyloid-beta precursor protein; experiment: Inhibition of HFIP-treated Amyloid beta (1 to 42) (unknown origin) self aggregation at 20 uM incubated for 46 to 48 hrs by fluorescence based assay relative to control; conditions: time 46-48 hrs
# [19] = biological target: T5, Amyloid-beta precursor protein
# [20] = biological target: T6, Amine oxidase [flavin-containing] A (Homo sapiens, UniProt P21397)
# T6 sequence (P21397 whole entry): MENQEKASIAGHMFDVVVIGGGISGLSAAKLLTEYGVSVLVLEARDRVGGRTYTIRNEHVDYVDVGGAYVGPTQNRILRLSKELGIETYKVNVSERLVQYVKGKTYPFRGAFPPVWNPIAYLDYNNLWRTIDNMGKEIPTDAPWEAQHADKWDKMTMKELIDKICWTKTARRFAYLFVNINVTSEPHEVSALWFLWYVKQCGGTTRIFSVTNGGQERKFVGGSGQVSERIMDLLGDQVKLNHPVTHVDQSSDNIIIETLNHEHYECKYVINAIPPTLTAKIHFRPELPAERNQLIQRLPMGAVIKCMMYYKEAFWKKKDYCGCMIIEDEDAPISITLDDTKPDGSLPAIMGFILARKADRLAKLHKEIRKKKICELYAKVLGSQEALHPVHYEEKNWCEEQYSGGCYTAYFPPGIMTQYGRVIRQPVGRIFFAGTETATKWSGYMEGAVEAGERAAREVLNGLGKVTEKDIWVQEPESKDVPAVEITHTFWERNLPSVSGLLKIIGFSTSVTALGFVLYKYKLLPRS
# Description: Inhibition of human recombinant MAO-A incubated for 15 mins by Amplex red MAO assay
# [21] = biological target: T5, Amyloid-beta precursor protein; experiment: Inhibition of Amyloid beta (1 to 42) (unknown origin) self aggregation at 25 uM incubated for 24 hrs by ThT-based fluorescence assay relative to control
# [22] = Permeability of the compound across blood brain barrier measured after 18 hrs by parallel artificial membrane permeation assay; assay type: ADME; conditions: PAMPA, read-out: permeability
# Acetylcholinesterase [23] = biological target: Acetylcholinesterase (Electrophorus electricus, UniProt O42275); experiment: Inhibition of electric eel AChE measured after 2 mins by Ellman's method
# Acetylcholinesterase [24] = biological target: T1, Acetylcholinesterase; experiment: Binding affinity to AChE (unknown origin) assessed as inhibition constant using AChI as substrate incubated for 15 mins by Ellman's spectrophotometric method
# T5 sequence (P05067 whole entry): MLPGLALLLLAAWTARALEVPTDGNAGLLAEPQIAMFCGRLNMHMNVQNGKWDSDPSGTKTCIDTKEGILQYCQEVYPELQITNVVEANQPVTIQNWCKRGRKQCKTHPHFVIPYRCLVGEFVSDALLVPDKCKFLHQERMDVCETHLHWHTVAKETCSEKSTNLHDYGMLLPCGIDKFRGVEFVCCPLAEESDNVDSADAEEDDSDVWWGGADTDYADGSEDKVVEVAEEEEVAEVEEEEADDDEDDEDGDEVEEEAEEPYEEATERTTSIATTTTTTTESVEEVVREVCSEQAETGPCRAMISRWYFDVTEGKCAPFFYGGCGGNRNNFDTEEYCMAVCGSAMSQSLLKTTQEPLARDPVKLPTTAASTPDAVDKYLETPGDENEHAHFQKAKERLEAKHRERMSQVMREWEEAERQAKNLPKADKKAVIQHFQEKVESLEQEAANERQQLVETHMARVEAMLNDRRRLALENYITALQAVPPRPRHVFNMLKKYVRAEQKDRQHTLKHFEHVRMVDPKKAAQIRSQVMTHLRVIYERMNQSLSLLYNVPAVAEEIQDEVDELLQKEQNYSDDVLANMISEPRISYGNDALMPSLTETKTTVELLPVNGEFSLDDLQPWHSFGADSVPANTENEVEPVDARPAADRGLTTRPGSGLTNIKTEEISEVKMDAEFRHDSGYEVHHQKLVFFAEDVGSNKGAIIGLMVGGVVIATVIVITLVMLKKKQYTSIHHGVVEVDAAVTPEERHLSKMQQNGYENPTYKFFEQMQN
# T1 sequence (P22303 whole entry): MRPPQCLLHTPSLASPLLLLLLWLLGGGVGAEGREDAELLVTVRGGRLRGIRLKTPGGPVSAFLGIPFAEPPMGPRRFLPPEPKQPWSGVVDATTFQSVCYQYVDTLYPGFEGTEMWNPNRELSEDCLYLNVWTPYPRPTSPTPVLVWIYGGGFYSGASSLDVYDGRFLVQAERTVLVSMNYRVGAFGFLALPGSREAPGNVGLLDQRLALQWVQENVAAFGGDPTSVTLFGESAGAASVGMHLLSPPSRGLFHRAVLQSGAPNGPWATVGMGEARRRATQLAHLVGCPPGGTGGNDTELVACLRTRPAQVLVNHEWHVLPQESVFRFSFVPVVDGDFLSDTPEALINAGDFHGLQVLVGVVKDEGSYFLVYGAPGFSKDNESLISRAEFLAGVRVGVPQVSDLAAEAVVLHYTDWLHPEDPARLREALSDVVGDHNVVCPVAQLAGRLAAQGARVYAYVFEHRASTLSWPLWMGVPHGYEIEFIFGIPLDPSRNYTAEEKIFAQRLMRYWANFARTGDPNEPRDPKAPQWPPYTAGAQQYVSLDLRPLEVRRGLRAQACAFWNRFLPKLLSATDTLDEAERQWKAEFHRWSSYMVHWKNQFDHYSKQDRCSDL
# T2 sequence (P06276 whole entry): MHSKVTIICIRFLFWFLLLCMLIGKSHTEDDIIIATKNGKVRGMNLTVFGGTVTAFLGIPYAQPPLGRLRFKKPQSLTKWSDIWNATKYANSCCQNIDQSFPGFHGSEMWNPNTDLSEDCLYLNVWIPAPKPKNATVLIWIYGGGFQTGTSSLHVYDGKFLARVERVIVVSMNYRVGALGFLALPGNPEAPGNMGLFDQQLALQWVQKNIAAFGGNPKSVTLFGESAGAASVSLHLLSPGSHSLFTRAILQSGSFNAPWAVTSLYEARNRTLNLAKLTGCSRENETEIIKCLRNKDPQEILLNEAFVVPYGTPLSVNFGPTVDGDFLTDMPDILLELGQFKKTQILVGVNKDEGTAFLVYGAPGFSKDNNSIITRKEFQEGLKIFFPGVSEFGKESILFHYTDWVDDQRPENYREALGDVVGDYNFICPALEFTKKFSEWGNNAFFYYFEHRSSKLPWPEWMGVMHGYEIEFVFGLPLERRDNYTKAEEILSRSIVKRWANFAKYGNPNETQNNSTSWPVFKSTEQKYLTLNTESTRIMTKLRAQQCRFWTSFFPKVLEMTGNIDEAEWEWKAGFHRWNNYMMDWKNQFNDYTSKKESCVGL
# Sequence of Carbonic anhydrase 1 (P00915 whole entry): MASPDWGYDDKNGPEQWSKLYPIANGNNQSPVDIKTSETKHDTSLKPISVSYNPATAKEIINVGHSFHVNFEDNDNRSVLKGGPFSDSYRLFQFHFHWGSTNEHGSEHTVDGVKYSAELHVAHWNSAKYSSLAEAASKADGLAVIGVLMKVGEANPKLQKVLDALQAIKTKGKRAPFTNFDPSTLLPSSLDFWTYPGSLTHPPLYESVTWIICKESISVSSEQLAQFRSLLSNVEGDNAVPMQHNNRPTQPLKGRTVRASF
# Sequence of Beta-secretase 1 (P56817 whole entry): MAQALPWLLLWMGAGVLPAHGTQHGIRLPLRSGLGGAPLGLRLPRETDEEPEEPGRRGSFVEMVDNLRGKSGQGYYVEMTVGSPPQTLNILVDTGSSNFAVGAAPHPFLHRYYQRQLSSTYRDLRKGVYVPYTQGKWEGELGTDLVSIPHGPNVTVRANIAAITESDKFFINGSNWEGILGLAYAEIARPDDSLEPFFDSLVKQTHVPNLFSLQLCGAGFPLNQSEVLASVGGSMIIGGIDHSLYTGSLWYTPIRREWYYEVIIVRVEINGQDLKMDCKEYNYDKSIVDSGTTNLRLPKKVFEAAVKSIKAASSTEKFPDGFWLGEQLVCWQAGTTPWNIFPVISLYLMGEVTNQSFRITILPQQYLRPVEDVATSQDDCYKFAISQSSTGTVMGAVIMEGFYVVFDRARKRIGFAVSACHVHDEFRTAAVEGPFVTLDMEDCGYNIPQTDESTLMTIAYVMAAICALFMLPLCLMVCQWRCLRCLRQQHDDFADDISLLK
# Sequence of Acetylcholinesterase (Electrophorus electricus, UniProt O42275) (O42275 whole entry): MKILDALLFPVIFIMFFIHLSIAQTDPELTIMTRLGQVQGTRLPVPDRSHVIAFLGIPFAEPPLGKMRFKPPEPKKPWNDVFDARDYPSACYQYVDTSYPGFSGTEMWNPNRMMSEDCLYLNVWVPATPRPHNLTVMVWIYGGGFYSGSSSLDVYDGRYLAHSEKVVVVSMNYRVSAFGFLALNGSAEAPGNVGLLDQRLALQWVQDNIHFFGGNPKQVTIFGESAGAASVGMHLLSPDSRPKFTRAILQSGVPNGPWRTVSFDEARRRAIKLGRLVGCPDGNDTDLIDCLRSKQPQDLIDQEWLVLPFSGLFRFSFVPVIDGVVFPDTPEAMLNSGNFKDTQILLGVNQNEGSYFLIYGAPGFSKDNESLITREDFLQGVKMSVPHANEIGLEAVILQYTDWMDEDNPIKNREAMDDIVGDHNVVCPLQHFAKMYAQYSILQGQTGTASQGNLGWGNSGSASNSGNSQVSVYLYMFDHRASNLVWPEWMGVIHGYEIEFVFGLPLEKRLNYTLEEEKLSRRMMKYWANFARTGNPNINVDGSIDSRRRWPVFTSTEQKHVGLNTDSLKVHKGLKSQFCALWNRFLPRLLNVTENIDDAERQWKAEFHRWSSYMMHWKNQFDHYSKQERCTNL
smiles,measurement,setting,value
NS(=O)(=O)c1ccc(NCc2cccc(Br)c2O)cc1,Activity,[1],74.5%
same,Activity,[2],4.2%
same,Ki,Acetylcholinesterase [3],0.0777 µM
CCc1nc(/C=C/c2ccc(O)c(O)c2)ccc1O,EC50,Liver,2.43 µM
Cc1ncc(/C=C/c2ccc(CN3CCOCC3)c(O)c2)c(CO)c1O,Activity,[4],1.52 µM
NS(=O)(=O)c1ccc(NCc2cccc(Cl)c2O)cc1,Ki,Acetylcholinesterase [3],0.021 µM
Oc1ccc(/C=C/c2ccc(C(F)(F)F)cc2)cc1Cl,Activity,C2C12,150%
COc1cc(/C=C/c2cc(=O)oc3c2ccc2oc(-c4ccccc4)cc23)cc(OC)c1,IC50,Cholinesterase [5],3.5 µM
same,IC50,[6],13.9 µM
same,IC50,Acetylcholinesterase [7],1.8 µM
COc1cc(/C=C/c2cc(=O)oc3c2ccc2oc(-c4cc(OC)cc(OC)c4)cc23)cc(OC)c1,IC50,Cholinesterase [5],6.3 µM
same,IC50,Beta-secretase 1,15.3 µM
same,Activity,[8],6.8 µM
same,IC50,[6],13.9 µM
same,IC50,Acetylcholinesterase [7],2.8 µM
Cc1ncc(/C=C/c2ccc(CN3CCCCC3)c(O)c2)c2c1OC(C)(C)OC2,Activity,[4],1.52 µM
same,IC50,[9],1.5 µM
COc1cc(/C=C/c2cc(=O)oc3c2ccc2oc(-c4cccc(F)c4)cc23)cc(OC)c1,IC50,Cholinesterase [5],3.5 µM
same,IC50,[6],13.9 µM
same,IC50,Acetylcholinesterase [7],1.8 µM
NS(=O)(=O)c1ccc(/N=C/c2cc(Br)cc(Cl)c2O)cc1,Ki,Carbonic anhydrase 2,0.016 µM
same,Ki,Carbonic anhydrase 1,0.0321 µM
same,Ki,Acetylcholinesterase [3],0.021 µM
CCn1c2ccccc2c2cc(/C=C/c3ccc(NC(=S)NCCN4CCCC4)cc3)ccc21,IC50,Acetylcholinesterase [10],2.64 µM
same,IC50,Cholinesterase [11],1.29 µM
same,inhibition,[12],51.3%
same,Activity,[13],86.1 µM
Oc1ccc(/N=C/c2ccc(O)c(O)c2O)cc1,RC50,[14],15.4 µmol/mL
same,RC50,[15],1.98 µmol/mL
same,RC50,[16],8.77 µmol/mL
Oc1ccc(/C=C/c2cc(O)cc(O)c2)cc1 [RESVERATROL],RC50,[14],72.7 µmol/mL
same,RC50,[15],1.43 µmol/mL
same,Activity,C2C12,110%
same,Activity,PC-12,81.23%
same,RC50,[16],26.4 µmol/mL
same,EC50,Liver,7.44 µM
same,IC50,[17],31.8 µM
COc1cc(/C=C/c2cc(=O)oc3c2ccc2oc(-c4ccc(C)cc4)cc23)cc(OC)c1,IC50,Cholinesterase [5],3.5 µM
same,IC50,[6],13.9 µM
same,IC50,Acetylcholinesterase [7],1.8 µM
Clc1ccc(/C=N/c2ccc3cn[nH]c3c2)cc1Cl,inhibition,[18],58.9%
same,IC50,[19],19.5 µM
same,IC50,[17],1.14 µM
same,IC50,[20],2.6 µM
CCN(CC)C[C@@H](O)COc1ccc(/C=C/c2cc(OC)cc(OC)c2)cc1,inhibition,[21],40.2%
same,Activity,PC-12,74.9%
same,Papp at 18 h,[22],81.2 nm/s
same,IC50,Acetylcholinesterase [23],24 µM
COc1ccc(-c2cc3c(ccc4c(/C=C/c5cc(OC)cc(OC)c5)cc(=O)oc43)o2)cc1,IC50,Cholinesterase [5],3.5 µM
same,IC50,[6],13.9 µM
same,IC50,Acetylcholinesterase [7],1.8 µM
COc1cc(/C=C/c2cc(=O)oc3c2ccc2oc(-c4cccc(Cl)c4)cc23)cc(OC)c1,IC50,Cholinesterase [5],3.5 µM
same,IC50,[6],13.9 µM
same,IC50,Acetylcholinesterase [7],1.8 µM
COc1cc(/C=C/c2cc(=O)oc3c2ccc2oc(-c4ccc(Cl)cc4)cc23)cc(OC)c1,IC50,Cholinesterase [5],3.5 µM
same,IC50,[6],13.9 µM
same,IC50,Acetylcholinesterase [7],1.8 µM
COc1cc(/C=C/c2cc(=O)oc3c2ccc2oc(-c4ccc(F)cc4)cc23)cc(OC)c1,IC50,Cholinesterase [5],3.5 µM
same,IC50,[6],13.9 µM
same,IC50,Acetylcholinesterase [7],1.8 µM
NS(=O)(=O)c1ccc(/N=C/c2cc(Br)cc(Br)c2O)cc1,Ki,Carbonic anhydrase 1,0.0321 µM
same,Ki,Acetylcholinesterase [24],2.54 µM
same,Ki,Acetylcholinesterase [3],0.021 µM
Cc1ncc(/C=C/c2ccc(CN3CCCCC3)c(O)c2)c(CO)c1O,Activity,[4],1.52 µM
same,IC50,[9],2.11 µM
